According to ChEMBL document CHEMBL4507260 (2021):
Calls of active or inactive are those of the source. The rule behind the calls is not given here.

Columns and labels:
[1] = biological target: Mitogen-activated protein kinase 4 (Homo sapiens) (UniProt P31152); settings: Compound concentration 1000.0 nM
[2] = biological target: Serine/threonine-protein kinase Nek11 (Homo sapiens) (UniProt Q8NG66); settings: Compound concentration 1000.0 nM
[3] = biological target: Epidermal growth factor receptor (Homo sapiens) (UniProt P00533); settings: Compound concentration 1000.0 nM
[4] = biological target: Serine/threonine-protein kinase 32A (Homo sapiens) (UniProt Q8WU08); settings: Compound concentration 1000.0 nM
[5] = tested on: Epidermal growth factor receptor (Homo sapiens), P00533 [UNDEFINED MUTATION]; settings: Compound concentration 1000.0 nM
[6] = biological target: Fibroblast growth factor receptor 1 (Homo sapiens) (UniProt P11362); settings: Compound concentration 1000.0 nM
[7] = biological target: Mitogen-activated protein kinase 12 (Homo sapiens) (UniProt P53778); settings: Compound concentration 1000.0 nM
[8] = biological target: Ephrin type-B receptor 2 (Homo sapiens) (UniProt P29323); settings: Compound concentration 1000.0 nM
[9] = biological target: Protein kinase C theta type (Homo sapiens) (UniProt Q04759); settings: Compound concentration 1000.0 nM
[10] = tested on: Epidermal growth factor receptor (Homo sapiens), P00533 [UNDEFINED MUTATION]; settings: Compound concentration 1000.0 nM; remark: listed apart in the source
[11] = biological target: Testis-specific serine/threonine-protein kinase 3 (Homo sapiens) (UniProt Q96PN8); settings: Compound concentration 1000.0 nM
[12] = biological target: Phosphatidylinositol 5-phosphate 4-kinase type-2 gamma (Homo sapiens) (UniProt Q8TBX8); settings: Compound concentration 1000.0 nM
[13] = biological target: Ephrin type-B receptor 6 (Homo sapiens) (UniProt O15197); settings: Compound concentration 1000.0 nM
[14] = biological target: Phosphatidylinositol 5-phosphate 4-kinase type-2 beta (Homo sapiens) (UniProt P78356); settings: Compound concentration 1000.0 nM
[15] = biological target: Non-receptor tyrosine-protein kinase TYK2 (Homo sapiens) (UniProt P29597); settings: Compound concentration 1000.0 nM
[16] = biological target: Mu-type opioid receptor (Homo sapiens) (UniProt P35372); experiment: mu CEREP ligand profiling; settings: Compound concentration 10.0 uM
[17] = biological target: D(3) dopamine receptor (Homo sapiens) (UniProt P35462); settings: Compound concentration 10.0 uM
Description: D3 CEREP ligand profiling

[18] = biological target: P2X receptor (Rattus norvegicus) (UniProt P51579+P49653+P51578+Q64663+P47824+P51577+P49654); settings: Compound concentration 10.0 uM
Description: P2X CEREP ligand profiling

[19] = biological target: 5-hydroxytryptamine receptor 6 (Homo sapiens) (UniProt P50406); settings: Compound concentration 10.0 uM
Description: 5-HT6 CEREP ligand profiling

[20] = biological target: Muscarinic acetylcholine receptor M4 (Homo sapiens) (UniProt P08173); settings: Compound concentration 10.0 uM
Description: M4 CEREP ligand profiling

[21] = biological target: T1, GABA-A receptor; anion channel (Homo sapiens) (UniProt P14867+P47870+P18507+P28472+P48169+Q99928+Q9UN88+P34903+O00591+O14764+Q8N1C3+P18505+P78334+P47869+P31644+Q16445); settings: Compound concentration 10.0 uM
Description: Cl- channel CEREP ligand profiling

[22] = biological target: Neurotensin receptor type 1 (Homo sapiens) (UniProt P30989); settings: Compound concentration 10.0 uM
Description: NT1 (NTS1) CEREP ligand profiling

[23] = biological target: T2, D(4) dopamine receptor (Homo sapiens, UniProt P21917); experiment: Radioligand assay using 3[H] A-369508
T2 sequence (P21917 whole entry): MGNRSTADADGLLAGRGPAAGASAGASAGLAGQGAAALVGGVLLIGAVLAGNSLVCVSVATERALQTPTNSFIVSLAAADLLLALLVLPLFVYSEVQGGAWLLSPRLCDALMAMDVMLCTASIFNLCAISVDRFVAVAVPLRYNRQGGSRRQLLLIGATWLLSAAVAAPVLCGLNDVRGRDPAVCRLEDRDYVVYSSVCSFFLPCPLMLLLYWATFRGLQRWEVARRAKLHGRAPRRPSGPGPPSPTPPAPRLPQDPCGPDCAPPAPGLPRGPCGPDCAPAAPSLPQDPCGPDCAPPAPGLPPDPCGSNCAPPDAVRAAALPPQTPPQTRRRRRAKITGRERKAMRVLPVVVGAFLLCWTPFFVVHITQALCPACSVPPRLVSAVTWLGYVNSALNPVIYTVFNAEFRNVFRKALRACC

[24] = biological target: Prostacyclin receptor (Homo sapiens) (UniProt P43119); settings: Compound concentration 10.0 uM
Description: PGI2 CEREP ligand profiling

[25] = biological target: T1, GABA-A receptor; anion channel (Homo sapiens); settings: Compound concentration 10.0 uM; remark: listed apart in the source
Description: BZD (central) CEREP ligand profiling

[26] = biological target: Somatostatin receptor (Homo sapiens) (UniProt P35346+P30874+P31391+P30872+P32745); settings: Compound concentration 10.0 uM
Description: Somatostatin CEREP ligand profiling

[27] = biological target: Cannabinoid receptor 2 (Homo sapiens) (UniProt P34972); settings: Compound concentration 10.0 uM
Description: CB2 CEREP ligand profiling

[28] = biological target: Adenosine receptor A1 (Homo sapiens) (UniProt P30542); settings: Compound concentration 10.0 uM
Description: A1 CEREP ligand profiling

[29] = biological target: 5-hydroxytryptamine receptor 5A (Homo sapiens) (UniProt P47898); experiment: 5-HT5A CEREP ligand profiling; settings: Compound concentration 10.0 uM
[30] = biological target: Natriuretic peptides A (Homo sapiens) (UniProt P01160); settings: Compound concentration 10.0 uM
Description: ANP CEREP ligand profiling

[31] = biological target: Adrenergic receptor alpha-2 (Homo sapiens) (UniProt P08913+P18825+P18089); experiment: a 2 CEREP ligand profiling; format: protein assay; settings: Compound concentration 10.0 uM
[32] = biological target: Calcium-activated potassium channel (Homo sapiens) (UniProt Q92952+Q9UGI6+Q12791+O15554+Q9H2S1+A8MYU2); settings: Compound concentration 10.0 uM
Description: SK+Ca channel CEREP ligand profiling

[33] = biological target: 5-hydroxytryptamine receptor 2C (Homo sapiens) (UniProt P28335); settings: Compound concentration 10.0 uM
Description: 5-HT2C CEREP ligand profiling

[34] = biological target: Sodium-dependent noradrenaline transporter (Homo sapiens) (UniProt P23975); settings: Compound concentration 10.0 uM
Description: NE transporter CEREP ligand profiling

[35] = biological target: Tumor necrosis factor (Homo sapiens) (UniProt P01375); settings: Compound concentration 10.0 uM
Description: TNF-a CEREP ligand profiling

[36] = biological target: 5-hydroxytryptamine receptor 1B (Homo sapiens) (UniProt P28222); settings: Compound concentration 10.0 uM
Description: 5-HT1B CEREP ligand profiling

[37] = biological target: D(1A) dopamine receptor (Homo sapiens) (UniProt P21728); experiment: D1 CEREP ligand profiling; settings: Compound concentration 10.0 uM

Epidermal growth factor receptor (Homo sapiens), P00533 [UNDEFINED MUTATION], sequence (P00533 whole entry, looked up, change not shown): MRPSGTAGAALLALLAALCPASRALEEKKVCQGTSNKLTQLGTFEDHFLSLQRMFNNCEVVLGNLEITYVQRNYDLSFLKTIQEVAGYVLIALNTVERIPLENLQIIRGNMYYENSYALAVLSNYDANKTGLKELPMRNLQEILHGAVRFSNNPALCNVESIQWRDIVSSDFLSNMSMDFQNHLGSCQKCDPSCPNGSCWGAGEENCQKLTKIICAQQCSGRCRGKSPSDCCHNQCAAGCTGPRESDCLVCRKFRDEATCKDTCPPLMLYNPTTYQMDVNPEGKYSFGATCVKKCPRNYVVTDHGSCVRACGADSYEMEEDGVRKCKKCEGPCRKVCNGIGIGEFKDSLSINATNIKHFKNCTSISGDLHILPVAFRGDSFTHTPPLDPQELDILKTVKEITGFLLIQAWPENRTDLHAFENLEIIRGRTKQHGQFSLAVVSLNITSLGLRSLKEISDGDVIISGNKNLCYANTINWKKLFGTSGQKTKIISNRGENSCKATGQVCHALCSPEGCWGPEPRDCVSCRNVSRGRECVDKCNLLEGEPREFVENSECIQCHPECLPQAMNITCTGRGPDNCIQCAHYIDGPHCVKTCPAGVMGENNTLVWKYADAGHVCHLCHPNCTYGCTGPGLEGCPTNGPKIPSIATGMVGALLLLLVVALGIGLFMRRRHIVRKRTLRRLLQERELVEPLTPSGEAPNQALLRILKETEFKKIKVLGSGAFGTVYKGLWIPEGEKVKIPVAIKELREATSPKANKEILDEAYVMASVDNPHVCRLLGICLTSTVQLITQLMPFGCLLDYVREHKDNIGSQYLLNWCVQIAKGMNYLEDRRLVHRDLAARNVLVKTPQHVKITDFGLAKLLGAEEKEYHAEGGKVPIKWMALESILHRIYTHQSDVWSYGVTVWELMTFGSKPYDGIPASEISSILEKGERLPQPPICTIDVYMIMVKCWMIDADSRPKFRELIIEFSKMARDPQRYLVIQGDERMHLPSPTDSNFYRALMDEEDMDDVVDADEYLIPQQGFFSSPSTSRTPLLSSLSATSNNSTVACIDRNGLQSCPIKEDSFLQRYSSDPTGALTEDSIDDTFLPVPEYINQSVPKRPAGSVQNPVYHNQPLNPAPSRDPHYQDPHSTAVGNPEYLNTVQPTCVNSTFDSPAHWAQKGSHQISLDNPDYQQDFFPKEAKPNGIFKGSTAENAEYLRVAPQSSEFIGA
Phosphatidylinositol 5-phosphate 4-kinase type-2 gamma (Homo sapiens), sequence (Q8TBX8 whole entry): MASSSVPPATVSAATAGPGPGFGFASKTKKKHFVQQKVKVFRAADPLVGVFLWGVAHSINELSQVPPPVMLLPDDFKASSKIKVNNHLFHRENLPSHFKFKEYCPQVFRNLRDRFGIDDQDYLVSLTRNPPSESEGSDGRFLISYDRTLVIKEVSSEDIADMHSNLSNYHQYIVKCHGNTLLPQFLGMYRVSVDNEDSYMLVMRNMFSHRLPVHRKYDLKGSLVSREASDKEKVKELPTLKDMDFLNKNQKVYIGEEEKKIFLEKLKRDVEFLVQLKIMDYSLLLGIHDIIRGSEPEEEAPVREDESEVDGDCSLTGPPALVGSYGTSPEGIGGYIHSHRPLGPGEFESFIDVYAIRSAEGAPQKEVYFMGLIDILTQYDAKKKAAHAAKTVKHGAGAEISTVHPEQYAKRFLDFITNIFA
Ephrin type-B receptor 2 (Homo sapiens), sequence (P29323 whole entry): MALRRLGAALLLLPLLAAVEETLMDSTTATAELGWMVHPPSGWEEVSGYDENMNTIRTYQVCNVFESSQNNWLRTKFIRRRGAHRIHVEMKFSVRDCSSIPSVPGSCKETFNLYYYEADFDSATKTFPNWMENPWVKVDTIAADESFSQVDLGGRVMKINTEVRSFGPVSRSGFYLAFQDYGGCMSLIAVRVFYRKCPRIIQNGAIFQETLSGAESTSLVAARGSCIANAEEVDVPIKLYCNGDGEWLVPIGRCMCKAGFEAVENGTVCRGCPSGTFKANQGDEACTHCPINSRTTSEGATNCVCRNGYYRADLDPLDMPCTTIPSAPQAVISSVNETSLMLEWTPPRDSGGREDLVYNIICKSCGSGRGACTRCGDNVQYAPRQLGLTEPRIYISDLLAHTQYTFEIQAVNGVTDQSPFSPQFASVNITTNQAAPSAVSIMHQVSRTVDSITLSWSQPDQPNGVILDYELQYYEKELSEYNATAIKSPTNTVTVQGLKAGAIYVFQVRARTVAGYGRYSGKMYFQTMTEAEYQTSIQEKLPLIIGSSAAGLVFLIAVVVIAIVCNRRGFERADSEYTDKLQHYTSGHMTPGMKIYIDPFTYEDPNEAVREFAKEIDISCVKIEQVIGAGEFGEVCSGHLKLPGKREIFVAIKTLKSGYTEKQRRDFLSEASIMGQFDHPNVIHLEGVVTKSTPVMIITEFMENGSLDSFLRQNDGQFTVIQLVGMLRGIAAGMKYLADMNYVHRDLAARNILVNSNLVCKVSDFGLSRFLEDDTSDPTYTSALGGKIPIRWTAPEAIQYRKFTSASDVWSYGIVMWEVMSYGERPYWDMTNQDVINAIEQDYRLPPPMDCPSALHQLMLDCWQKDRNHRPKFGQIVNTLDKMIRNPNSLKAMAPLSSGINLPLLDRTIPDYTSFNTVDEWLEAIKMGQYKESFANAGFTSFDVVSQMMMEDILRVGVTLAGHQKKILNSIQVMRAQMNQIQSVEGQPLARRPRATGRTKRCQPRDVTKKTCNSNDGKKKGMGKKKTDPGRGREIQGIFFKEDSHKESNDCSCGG
Phosphatidylinositol 5-phosphate 4-kinase type-2 beta (Homo sapiens), sequence (P78356 whole entry): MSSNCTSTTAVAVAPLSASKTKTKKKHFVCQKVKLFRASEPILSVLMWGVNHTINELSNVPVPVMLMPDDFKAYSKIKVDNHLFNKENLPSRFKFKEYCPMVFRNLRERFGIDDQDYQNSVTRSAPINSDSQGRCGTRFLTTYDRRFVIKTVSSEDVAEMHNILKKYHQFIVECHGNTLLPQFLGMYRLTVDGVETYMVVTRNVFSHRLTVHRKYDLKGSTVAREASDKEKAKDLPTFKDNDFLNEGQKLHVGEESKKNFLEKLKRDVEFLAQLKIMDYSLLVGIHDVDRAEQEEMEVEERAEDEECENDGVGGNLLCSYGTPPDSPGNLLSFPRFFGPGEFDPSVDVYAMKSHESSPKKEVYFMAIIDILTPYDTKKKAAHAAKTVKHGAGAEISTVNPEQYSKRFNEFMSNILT
Testis-specific serine/threonine-protein kinase 3 (Homo sapiens), sequence (Q96PN8 whole entry): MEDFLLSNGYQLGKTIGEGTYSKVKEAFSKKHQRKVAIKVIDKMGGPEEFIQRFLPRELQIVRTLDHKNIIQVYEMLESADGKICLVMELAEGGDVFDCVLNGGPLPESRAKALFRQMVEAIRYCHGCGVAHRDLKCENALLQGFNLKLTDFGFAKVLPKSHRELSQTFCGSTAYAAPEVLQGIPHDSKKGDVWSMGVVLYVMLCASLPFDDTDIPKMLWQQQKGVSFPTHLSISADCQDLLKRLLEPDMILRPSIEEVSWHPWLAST
Protein kinase C theta type (Homo sapiens), sequence (Q04759 whole entry, looked up): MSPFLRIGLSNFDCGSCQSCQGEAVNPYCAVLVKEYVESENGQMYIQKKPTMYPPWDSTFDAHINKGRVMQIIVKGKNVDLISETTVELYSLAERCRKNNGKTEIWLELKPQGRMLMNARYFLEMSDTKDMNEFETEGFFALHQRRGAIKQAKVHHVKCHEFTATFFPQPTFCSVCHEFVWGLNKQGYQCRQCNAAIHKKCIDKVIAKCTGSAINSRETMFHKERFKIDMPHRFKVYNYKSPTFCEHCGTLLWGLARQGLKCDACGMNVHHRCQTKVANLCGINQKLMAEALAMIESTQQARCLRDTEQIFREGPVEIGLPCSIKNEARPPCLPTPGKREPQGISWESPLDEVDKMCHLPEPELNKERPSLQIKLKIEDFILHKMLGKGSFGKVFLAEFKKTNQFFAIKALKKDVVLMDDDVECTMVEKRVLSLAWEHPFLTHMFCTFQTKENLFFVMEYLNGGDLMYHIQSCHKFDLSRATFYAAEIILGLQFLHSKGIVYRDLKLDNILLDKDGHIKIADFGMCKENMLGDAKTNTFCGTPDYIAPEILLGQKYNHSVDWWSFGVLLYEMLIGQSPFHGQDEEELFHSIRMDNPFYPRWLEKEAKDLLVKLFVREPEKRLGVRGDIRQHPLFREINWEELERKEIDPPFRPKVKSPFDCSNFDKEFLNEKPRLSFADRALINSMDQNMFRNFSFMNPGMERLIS
Mitogen-activated protein kinase 4 (Homo sapiens), sequence (P31152 whole entry): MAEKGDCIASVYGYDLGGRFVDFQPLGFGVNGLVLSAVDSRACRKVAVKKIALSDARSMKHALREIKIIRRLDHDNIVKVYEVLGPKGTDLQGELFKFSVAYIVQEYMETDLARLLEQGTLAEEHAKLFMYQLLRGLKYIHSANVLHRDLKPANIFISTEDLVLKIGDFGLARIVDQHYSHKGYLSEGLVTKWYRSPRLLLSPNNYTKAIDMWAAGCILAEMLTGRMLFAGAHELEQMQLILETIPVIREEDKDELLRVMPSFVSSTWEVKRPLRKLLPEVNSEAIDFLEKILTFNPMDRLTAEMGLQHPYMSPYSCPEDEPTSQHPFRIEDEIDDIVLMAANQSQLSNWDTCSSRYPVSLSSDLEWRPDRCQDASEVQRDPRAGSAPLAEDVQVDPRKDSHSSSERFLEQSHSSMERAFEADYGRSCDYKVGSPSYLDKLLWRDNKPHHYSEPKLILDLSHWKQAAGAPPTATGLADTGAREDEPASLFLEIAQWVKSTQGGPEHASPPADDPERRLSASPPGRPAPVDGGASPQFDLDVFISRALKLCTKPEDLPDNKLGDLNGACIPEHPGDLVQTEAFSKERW
Mitogen-activated protein kinase 12 (Homo sapiens), sequence (P53778 whole entry): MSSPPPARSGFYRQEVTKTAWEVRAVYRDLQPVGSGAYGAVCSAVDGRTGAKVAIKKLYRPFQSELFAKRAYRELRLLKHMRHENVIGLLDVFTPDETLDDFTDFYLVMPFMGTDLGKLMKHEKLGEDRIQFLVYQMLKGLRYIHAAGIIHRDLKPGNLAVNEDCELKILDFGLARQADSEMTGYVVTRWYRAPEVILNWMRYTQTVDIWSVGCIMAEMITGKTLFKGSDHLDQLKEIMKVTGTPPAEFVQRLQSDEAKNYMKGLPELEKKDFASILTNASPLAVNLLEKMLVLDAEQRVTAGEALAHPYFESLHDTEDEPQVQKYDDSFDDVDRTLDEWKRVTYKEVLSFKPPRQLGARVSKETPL

CSc1cccnc1N1CCN(Cc2nc3ccccc3[nH]2)CC1 [A-769] gave a residual activity [1] of 100%, a residual activity [2] of 79% and a residual activity [3] of 100%. The residual activity [4] was 100%, the residual activity [5] was 82% and the residual activity [6] was 100%. It also gave a residual activity [7] of 98%, a residual activity [8] of 99% and a residual activity [9] of 100%. For the same compound, the residual activity [10] was 100%, the residual activity [11] was 98% and the residual activity [12] was 81%. The residual activity [13] was 89%, the residual activity [14] was 100% and the residual activity [15] was 84%.

In the case of c1ccc(N2CCN(Cc3nc4ccccc4[nH]3)CC2)nc1 [ABT-724], the residual activity [1] is reported as 100%, the inhibition [16] is reported as 51% and the inhibition [17] is reported as < 10%. The inhibition [18] was < 10%, the inhibition [19] was < 10% and the inhibition [20] was < 10%. For the same compound, the inhibition [21] was < 10%, the residual activity [2] was 100% and the residual activity [3] was 99%. For the same compound, the inhibition [22] was < 10%, the Ki [23] was 57.5 nM (active) and the residual activity [4] was 100%. The inhibition [24] was < 10%, the inhibition [25] was < 10% and the inhibition [26] was < 10%. For the same compound, the inhibition [27] was < 10%, the inhibition [28] was < 10% and the residual activity [6] was 100%. For the same compound, the residual activity [7] was 74%, the inhibition [29] was 21% and the inhibition [30] was < 10%. The residual activity [8] was 98%, the residual activity [9] was 98% and the inhibition [31] was 21%. The inhibition [32] was < 10%, the residual activity [10] was 100% and the inhibition [33] was 10%. For the same compound, the residual activity [11] was 92%, the residual activity [12] was 86% and the inhibition [34] was < 10%. For the same compound, the residual activity [13] was 75%, the inhibition [35] was < 10% and the residual activity [14] was 100%. For the same compound, the residual activity [15] was 100%, the inhibition [36] was < 10% and the inhibition [37] was 24%.
